Assay results from US8741934B2, “Inhibitors of ion channels” (Pfizer Limited, priority 2007, dated 2014).

The compounds below were run against T1, hSCN3A sodium channels (Homo sapiens, UniProt Q9NY46) (assay: hSCN3A electrophysiology, whole-cell patch-clamp or PatchXpress 7000, estimated IC-50 (Table B)). Details: estimated IC-50; hSCN3A cells, whole-cell patch-clamp or PatchXpress 7000; read-out: SCN3A EIC-50.
T1 construct: expressed in transfected cells
Type: cell-based
Protocol: Human Embryonic Kidney (HEK) cells were transfected with an hSCN3A construct using lipofectamine reagent (Invitrogen), using standard techniques. […] Clones were screened for expression using the whole-cell voltage-clamp technique.
HEK cells stably transfected with hSCN3A were maintained in DMEM medium supplemented with 10% heat-inactivated fetal bovine serum and 400 μg/ml G418 sulfate in an incubator at 37° C. with a humidified atmosphere of 10% CO2. […] For electrophysiological studies, cells were removed from the culture flask by brief trypsinization and replated at low density onto glass cover slips. Cells were typically used for electrophysiological experiments within 24 to 72 h after plating.
All recordings were made at room temperature (22-24° C.) using AXOPATCH 200B amplifiers and PCLAMP software (Axon Instruments, Burlingame, Calif.) or PatchXpress 7000 hardware and associated software (Axon Instruments, Burlingame, Calif.).
Current records were acquired at 20 to 50 KHz and filtered at 5 to 10 KHz.
HEK cells stably transfected with hSCN3A were viewed under Hoffman contrast optics and placed in front of an array of flow pipes emitting either control or compound-containing extracellular solutions. All compounds were dissolved in dimethyl sulfoxide to make 10 mM stock solutions, which were then diluted into extracellular solution to attain the final concentrations desired.
The voltage-dependence of inactivation was determined by applying a series of depolarizing prepulses (8 sec long in 10 mV increments) from a negative holding potential. The voltage was then immediately stepped to 0 mV to assess the magnitude of the sodium current. Currents elicited at 0 mV were plotted as a function of prepulse potential to allow estimation of the voltage midpoint of inactivation (V1/2). Cells were then voltage clamped at the empirically determined V1/2.
Compounds were tested for their ability to inhibit hSCN3A sodium channels by activating the channel with a 20 msec voltage step to 0 mV following an 8 second conditioning prepulse to the empirically determined V1/2 (Table B). Compound effect (% inhibition) was determined by difference in current amplitude before and after application of test compounds. […] Inhibition values <20% and >80% were excluded from the calculation.
In some cases electrophysiological assays were conducted with PatchXpress 7000 hardware and associated software (Molecular Devices Corp) (Table B). All assay buffers and solutions were identical to those used in conventional whole-cell voltage clamp experiments described above. hSCN3A cells were grown as above to 50%-80% confluency and harvested by trypsinization. Trypsinized cells were washed and resuspended in extracellular buffer at a concentration of 1×10^6 cells/ml. The onboard liquid handling facility of the PatchXpress was used for dispensing cells and application of test compounds. Determination of the voltage midpoint of inactivation was as described for conventional whole-cell recordings. Cells were then voltage-clamped to the empirically determined V1/2 and current was activated by a 20 msec voltage step to 0 mV.

T1 sequence (Q9NY46 whole entry): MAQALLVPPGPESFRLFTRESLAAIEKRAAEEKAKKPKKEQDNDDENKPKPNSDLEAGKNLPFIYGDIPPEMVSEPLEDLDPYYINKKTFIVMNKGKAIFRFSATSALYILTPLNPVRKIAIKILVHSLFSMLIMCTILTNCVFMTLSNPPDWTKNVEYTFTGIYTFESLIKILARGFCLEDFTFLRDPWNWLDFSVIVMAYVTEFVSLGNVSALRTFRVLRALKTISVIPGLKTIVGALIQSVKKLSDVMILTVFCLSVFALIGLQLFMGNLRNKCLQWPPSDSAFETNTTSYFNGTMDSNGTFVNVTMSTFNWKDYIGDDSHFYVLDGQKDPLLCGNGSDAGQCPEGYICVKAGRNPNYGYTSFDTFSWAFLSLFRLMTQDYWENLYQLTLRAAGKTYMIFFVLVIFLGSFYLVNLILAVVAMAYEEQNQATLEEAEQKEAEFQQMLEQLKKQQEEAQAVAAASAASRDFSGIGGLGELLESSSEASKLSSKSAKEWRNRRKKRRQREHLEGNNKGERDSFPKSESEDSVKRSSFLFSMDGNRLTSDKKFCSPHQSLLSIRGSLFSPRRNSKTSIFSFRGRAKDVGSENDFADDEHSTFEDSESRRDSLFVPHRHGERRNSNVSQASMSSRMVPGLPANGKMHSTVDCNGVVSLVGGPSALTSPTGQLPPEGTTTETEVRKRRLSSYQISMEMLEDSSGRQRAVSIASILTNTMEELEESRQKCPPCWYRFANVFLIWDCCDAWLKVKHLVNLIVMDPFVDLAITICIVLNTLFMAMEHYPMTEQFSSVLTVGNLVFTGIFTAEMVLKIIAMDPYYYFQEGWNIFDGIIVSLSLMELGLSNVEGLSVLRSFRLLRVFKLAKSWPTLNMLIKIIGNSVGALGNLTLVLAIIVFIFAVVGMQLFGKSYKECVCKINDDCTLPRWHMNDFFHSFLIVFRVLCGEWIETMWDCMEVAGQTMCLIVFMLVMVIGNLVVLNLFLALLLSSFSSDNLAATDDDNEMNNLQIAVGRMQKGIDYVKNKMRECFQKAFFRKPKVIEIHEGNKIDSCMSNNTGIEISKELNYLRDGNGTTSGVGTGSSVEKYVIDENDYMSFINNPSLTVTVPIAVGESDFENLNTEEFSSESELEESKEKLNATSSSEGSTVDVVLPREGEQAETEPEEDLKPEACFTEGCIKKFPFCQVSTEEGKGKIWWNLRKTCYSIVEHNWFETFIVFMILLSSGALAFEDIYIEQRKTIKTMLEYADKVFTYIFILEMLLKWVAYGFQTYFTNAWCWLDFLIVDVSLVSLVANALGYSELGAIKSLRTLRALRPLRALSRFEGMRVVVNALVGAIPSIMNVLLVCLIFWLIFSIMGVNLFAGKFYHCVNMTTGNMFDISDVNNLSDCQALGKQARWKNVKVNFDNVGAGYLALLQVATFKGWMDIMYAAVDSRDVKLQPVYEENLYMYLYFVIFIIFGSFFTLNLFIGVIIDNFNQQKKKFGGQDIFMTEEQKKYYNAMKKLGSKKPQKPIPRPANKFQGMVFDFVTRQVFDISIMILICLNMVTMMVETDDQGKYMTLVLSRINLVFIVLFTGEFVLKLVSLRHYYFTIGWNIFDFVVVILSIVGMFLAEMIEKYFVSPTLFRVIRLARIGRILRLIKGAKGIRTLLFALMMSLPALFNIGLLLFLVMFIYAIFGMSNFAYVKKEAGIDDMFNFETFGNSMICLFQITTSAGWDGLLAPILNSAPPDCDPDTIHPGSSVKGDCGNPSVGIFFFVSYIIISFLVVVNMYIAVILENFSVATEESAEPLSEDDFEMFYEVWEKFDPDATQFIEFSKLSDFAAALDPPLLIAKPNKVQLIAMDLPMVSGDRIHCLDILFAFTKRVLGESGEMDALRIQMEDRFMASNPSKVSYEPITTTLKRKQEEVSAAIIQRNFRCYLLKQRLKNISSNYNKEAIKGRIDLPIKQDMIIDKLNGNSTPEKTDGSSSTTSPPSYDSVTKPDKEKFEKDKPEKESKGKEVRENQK

O=C(c1ccc(S(=O)(=O)Nc2nccs2)cc1)N1CCSCC1c1ccccc1Cl (stereo not shown) [Example 46, 4-{[3-(2-Chlorophenyl)thiomorpholin-4-yl]carbonyl}-N-1,3-thiazol-2-ylbenzenesulfonamide] and O=C(c1ccc(S(=O)(=O)Nc2nccs2)cc1)N1CCOC[C@H]1c1ccccc1 [Example 48, 4-{[(3R)-3-phenylmorpholin-4-yl]carbonyl}-N-1,3-thiazol-2-ylbenzenesulfonamide] cannot be ordered by IC50: 1550 nM for the first, greater than 1000 nM for the second.

First: O=C(c1ccc(S(=O)(=O)Nc2nccs2)cc1)N1CCCC(Cc2cccc(F)c2)C1 (stereo not shown) [Example 47, 4-{[3-(3-Fluorobenzyl)piperidin-1-yl]carbonyl}-N-1,3-thiazol-2-ylbenzenesulfonamide]
Second: Cc1cccc(OC2CCCN(C(=O)c3ccc(S(=O)(=O)Nc4nccs4)cc3)C2)c1 (stereo not shown) [Example 51, 4-{[3-(3-Methylphenoxy)piperidin-1-yl]carbonyl}-N-1,3-thiazol-2-ylbenzenesulfonamide]
The IC50 of the first is 7.2-fold lower: 920 nM for the first, 6580 nM for the second.

Compared with C[C@H]1CN(C(=O)c2ccc(S(=O)(=O)Nc3nccs3)cc2)C[C@@H]1COc1ccccc1 [Example 49, 4-{[(3R,4R)-3-methyl-4-(phenoxymethyl)pyrrolidin-1-yl]carbonyl}-N-1,3-thiazol-2-ylbenzenesulfonamide], O=C(c1ccc(S(=O)(=O)Nc2nccs2)cc1)N1CCO[C@H]2Cc3ccccc3[C@H]21 [Example 52, 4-[(4aR,9aS)-2,3,9,9a-tetrahydroindeno[2,1-b][1,4]oxazin-4(4aH)-ylcarbonyl]-N-1,3-thiazol-2-ylbenzenesulfonamide] is 2.5-fold higher in IC50: 1150 nM for the first, 2910 nM for the second.

First: O=C(c1ccc(S(=O)(=O)Nc2nccs2)cc1)N1CCO[C@@H]2Cc3ccccc3[C@@H]21 [Example 53, 4-[(4aS,9aR)-2,3,9,9a-tetrahydroindeno[2,1-b][1,4]oxazin-4(4aH)-ylcarbonyl]-N-1,3-thiazol-2-ylbenzenesulfonamide]
Second: O=C(NCc1ccc(F)c(C2CC2)c1)c1ccc(S(=O)(=O)Nc2nccs2)cc1 [Example 54, N-(3-cyclopropyl-4-fluorobenzyl)-4-[(1,3-thiazol-2-ylamino)sulfonyl]benzamide]
The IC50 of the first is 24-fold higher: 2860 nM for the first, 120 nM for the second.

N#Cc1cc(CNC(=O)c2ccc(S(=O)(=O)Nc3nccs3)cc2)ccc1F [Example 55, N-(3-cyano-4-fluorobenzyl)-4-[(1,3-thiazol-2-ylamino)sulfonyl]benzamide] and Cc1ccc(CNC(=O)c2ccc(S(=O)(=O)Nc3nccs3)cc2)cc1F [Example 62, N-(3-fluoro-4-methylbenzyl)-4-[(1,3-thiazol-2-ylamino)sulfonyl]benzamide] are within 1.5-fold of each other in IC50: 1410 nM for the first, 1020 nM for the second.

O=C(NCc1cccc(-n2cccn2)c1)c1ccc(S(=O)(=O)Nc2nccs2)cc1 [Example 59, N-[3-(1H-pyrazol-1-yl)benzyl]-4-[(1,3-thiazol-2-ylamino)sulfonyl]benzamide] and O=C(NCc1ccc(-n2cccn2)cc1)c1ccc(S(=O)(=O)Nc2nccs2)cc1 [Example 60, N-[4-(1H-pyrazol-1-yl)benzyl]-4-[(1,3-thiazol-2-ylamino)sulfonyl]benzamide] are within 1.5-fold of each other in IC50: 1690 nM for the first, 1500 nM for the second.

Compared with Cc1c(Cl)cccc1CNC(=O)c1ccc(S(=O)(=O)Nc2nccs2)cc1 [Example 61, N-(3-chloro-2-methylbenzyl)-4-[(1,3-thiazol-2-ylamino)sulfonyl]benzamide], Cc1ccc(Cl)cc1CNC(=O)c1ccc(S(=O)(=O)Nc2nccs2)cc1 [Example 64, N-(5-chloro-2-methylbenzyl)-4-[(1,3-thiazol-2-ylamino)sulfonyl]benzamide] is 2.8-fold higher in IC50: 160 nM for the first, 450 nM for the second.

First: O=C(NCc1cccc(OC(F)F)c1)c1ccc(S(=O)(=O)Nc2nccs2)cc1 [Example 63, N-[3-(difluoromethoxy)benzyl]-4-[(1,3-thiazol-2-ylamino)sulfonyl]benzamide]
Second: O=C(NCc1cc(F)cc(F)c1F)c1ccc(S(=O)(=O)Nc2nccs2)cc1 [Example 65, 4-[(1,3-Thiazol-2-ylamino)sulfonyl]-N-(2,3,5-trifluorobenzyl)benzamide]
The IC50 of the first is 3.5-fold lower: 1090 nM for the first, 3840 nM for the second. The first is the more potent here.
